Tested on: lactating dairy cows
Assay: New York/Cornell Study: dietary monensin fed to lactating dairy cows
Assay type: in vivo
Description: Lactating dairy cows were used for the instant example. Methods: One-hundred ninety-two lactating cows (120±50 DIM) were randomly assigned to 12 pens each including 16 cows.

Compound: CC[C@@]1([C@@H]2O[C@@H]([C@H]3O[C@@](O)(CO)[C@H](C)C[C@@H]3C)C[C@@H]2C)CC[C@H]([C@]2(C)CC[C@]3(C[C@H](O)[C@@H](C)[C@@H]([C@@H](C)[C@@H](OC)[C@H](C)C(=O)O)O3)O2)O1 [monensin]
- DMI (R11, 11 g/ton): 59 lb/d
- ECM (R11, 11 g/ton): 103 lb/d
- Estimated Dietary Energy (R11, 11 g/ton): 1.65 Mcal/kg DM
- Milk Fat (R11, 11 g/ton): 4.67%
- Milk Yield (R11, 11 g/ton): 88 lb/d
- Protein (R11, 11 g/ton): 3.38%
- Energy-corrected milk (ECM) (R11 group, 11 g/ton): 46.9 kg/day
- Milk Yield (R11 group, 11 g/ton): 39.9 kg/day
- Milk fat yield (R11 group, 11 g/ton): 1.83 kg/day
- Milk protein yield (R11 group, 11 g/ton): 1.33 kg/day
- DMI (R14.5, 14.5 g/ton): 59 lb/d
- ECM (R14.5, 14.5 g/ton): 104 lb/d
- Estimated Dietary Energy (R14.5, 14.5 g/ton): 1.65 Mcal/kg DM
- Milk Fat (R14.5, 14.5 g/ton): 4.71%
- Milk Yield (R14.5, 14.5 g/ton): 87 lb/d
- Protein (R14.5, 14.5 g/ton): 3.37%
- Energy-corrected milk (ECM) (R14.5 group, 14.5 g/ton): 47.1 kg/day
- FA unsaturation compared to CON (R14.5 group, 14.5 g/ton): significantly reduced
- Milk Yield (R14.5 group, 14.5 g/ton): 39.7 kg/day
- Milk fat yield (R14.5 group, 14.5 g/ton): 1.85 kg/day
- Milk protein yield (R14.5 group, 14.5 g/ton): 1.33 kg/day
- DMI (R18, 18 g/ton): 61 lb/d
- ECM (R18, 18 g/ton): 103 lb/d
- Estimated Dietary Energy (R18, 18 g/ton): 1.68 Mcal/kg DM
- Milk Fat (R18, 18 g/ton): 4.67%
- Milk Yield (R18, 18 g/ton): 87 lb/d
- Protein (R18, 18 g/ton): 3.39%
- DMI (R18 group, 18 g/ton): increased numerically
- Energy-corrected milk (ECM) (R18 group, 18 g/ton): 46.8 kg/day
- FA unsaturation compared to CON (R18 group, 18 g/ton): significantly reduced
- Milk Yield (R18 group, 18 g/ton): 39.6 kg/day
- Milk fat yield (R18 group, 18 g/ton): 1.83 kg/day
- Milk protein yield (R18 group, 18 g/ton): 1.33 kg/day
- Milk fat percentage (all treatment groups): greater than 4.6%
- Milk true protein percent (all treatment groups): ≥ 3.35%
- Increase in ECM (increasing monensin supplementation, non-significant): 2%

— patent publication US20230255927A1 (ELANCO TIERGESUNDHEIT AG, priority 2022, published 2023)
